The record followed here is publication PMC7156458, “Synthetic biology based construction of biological activity-related library of fungal decalin-containing diterpenoid pyrones” (Nature Communications, 2020).

For orientation: IC50 means the point on the concentration scale where inhibition reaches its midpoint.

“And” between values parts separate entries of the source, which are not always exact repeats. Identical values can stand only once. Like-named read-outs stand apart in the source and are kept apart here.

The test system of data set [1] is MAGI cells. As to the kind of experiment: cytotoxicity in the anti-HIV assay (CC50). The data set is classed as cell-based. The note with it: for Cytotoxicity: single determinations; for Cytotoxicity Avg.: average of numeric determinations. The source says: We examined the inhibitory activities of DDPs against various species of bacteria (both gram-negative and gram-positive bacteria), fungi and viruses. […] In contrast, preliminary screening of the DDPs for anti-viral agents with hepatitis B virus (HBV), measles virus (MV), Epstein-Barr virus (EBV), herpes simplex virus (HSV) and human immunodeficiency virus-1 (HIV-1) indicated their selective inhibition of HIV.
Policy information about cell lines […]
HeLa-CD4-LTR/ !-galactosidase (MAGI) cells provided by Dr. J. Overbaugh through the NIH AIDS Research and Reference […]
MAGI cells were authenticated by the NIH.
Mycoplasma contamination All the cell lines tested negative for mycoplasma contamination.
Commonly misidentified lines No commonly mis-identified cell lines. […]

Data set [2] relates to l(2)mbn cells. As to the kind of experiment: cytotoxicity in Drosophila l(2)mbn cells. The data set is classed as cell-based. The following applies: for Luminescence Raw1: replicate 1; for Luminescence Raw2: replicate 2; for IC50: Drosophila melanogaster, cytotoxicity. The method, then: (§1) We screened the DDPs on the Drosophila assay system for cytotoxicity, inhibitory activity of innate immune signalling and insecticidal activity. The cytotoxicity of the DDPs was evaluated using two cell lines, embryonic macrophage-derived DL1 cells[58]–[60] and larval blood cell-derived l(2)mbn cells, and their IC50 values are listed in Supplementary Table 23.

Data set [3] can be described thus: cytotoxicity in Drosophila l(2)mbn cells. Format: cell-based. The note with it: Drosophila, l(2)mbn cells (larval blood cell-derived). The protocol: as §1
For data set [4], the system named is MCF-7 cells. As to the kind of experiment: cell cytotoxic effects against MCF-7 cells (72 h), A490. Format: cell-based, human. The note with it: for viability at 0.1 µM / viability at 1 µM / viability at 10 µM: Homo sapiens, MCF7, 72 h, read-out: A490 (control =1) ave; for viability at 0.1 µM / viability at 1 µM / viability at 10 µM / A490 ave: MCF-7, 72 h.
Setting [5] is: average of two replicates, read-out: IC50 Average.
[6] abbreviates: replicate 1, read-out: IC50 (1).
Where [7] appears, read: replicate 2, read-out: IC50 (2).
The mark [8] stands for this setting: replicate 1, relative to DMSO 1%, read-out: % viability, viability 1.
Where [9] appears, read: replicate 2, relative to DMSO 1%, read-out: % viability, viability 2.
Setting [10] is: 0.1 µM (DMSO 0.002%), control 1.064.
The mark [11] stands for this setting: 1 µM (DMSO 0.02%), control 1.104.
[12] abbreviates: 10 µM (DMSO 0.2%), control 1.049.

In the case of `CC(C)=CCC/C(C)=C/CC/C(C)=C/CC/C(C)=C/Cc1c(O)c(C)c(C)oc1=O` [Compound 2], the Cytotoxicity in data set [1] is above 10 µM.
For `C=C1CCC2C(C)(CCC=C(C)C)C(=O)CCC2(C)C1Cc1c(O)c(C)c(C)oc1=O` (stereo not shown) [Compound 8], the “Cytotoxicity Avg.” value in data set [1] came out at 8.816 µM. For the same compound, the Cytotoxicity in data set [1] was 9.604 µM and 7.239 µM. Also, the “Luminescence Raw1” value is given as 5399824 in data set [2] (0.04 µM); 5509158 in data set [2] (0.2 µM); 5444928 in data set [2] (1 µM); 4437905 in data set [2] (4 µM); 177623 in data set [2] (10 µM); 114164 in data set [2] (20 µM). In addition, the “Luminescence Raw2” value in data set [2] (0.04 µM) turned out to be 5163481; in data set [2] (0.2 µM), 5734687; in data set [2] (1 µM), 5762112; in data set [2] (4 µM), 5343895; in data set [2] (10 µM), 184474; in data set [2] (20 µM) it was 158874. The IC50 was 5.14 µM in data set [2] (setting [5]); 5.14 ± 0.3 µM in data set [2] (average±SEM, read-out: IC50); 4.83 µM in data set [2] (setting [6]); 5.44 µM in data set [2] (setting [7]). For the same compound, the viability at 0.04 µM in data set [3] (setting [8]) came out at 86%; in data set [3] (setting [9]), 82.2%. Also, the viability at 0.2 µM in data set [3] (setting [8]) was determined as 87.7%; in data set [3] (setting [9]), 91.3%. The viability at 1 µM in data set [3] (setting [8]) came to 86.7%; in data set [3] (setting [9]), 91.8%. The viability at 4 µM worked out at 70.7% in data set [3] (setting [8]) and 85.1% in data set [3] (setting [9]). Also, the viability at 10 µM in data set [3] (setting [8]) was 2.83%; in data set [3] (setting [9]), 2.94%. Moreover, the viability at 20 µM in data set [3] (setting [8]) worked out at 1.82%; in data set [3] (setting [9]), 2.53%.
As to `C=C1CCC2C(C)(CC(=O)C=C(C)C)C(O)CCC2(C)C1Cc1c(OC)oc(C)c(C)c1=O` (stereo not shown) [Compound 25], the viability at 0.1 µM in data set [4] (0.1 µM (DMSO 0.002%)) stood at 78.9%. Also, the viability at 1 µM in data set [4] (1 µM (DMSO 0.02%)) stood at 103%; in data set [3] (setting [8]), 121%; in data set [3] (setting [9]) it was 140%. Moreover, the figures for the viability at 10 µM in data set [4] (10 µM (DMSO 0.2%)), in data set [3] (setting [8]) and in data set [3] (setting [9]) were 112%, 125% and 136%, respectively. Besides, the values for the A490 ave in data set [4] (setting [10]), in data set [4] (setting [11]) and in data set [4] (setting [12]) were 0.839, 1.141 and 1.171, respectively. Besides, the “Luminescence Raw1” value in data set [2] (0.04 µM) came to 3193720; in data set [2] (0.2 µM) it was 3343782; in data set [2] (1 µM) it was 3097409; in data set [2] (4 µM), 3528838; in data set [2] (10 µM) it was 3209953; in data set [2] (20 µM), 2234271. In addition, the “Luminescence Raw2” value in data set [2] (0.04 µM) is on record as 3243139; in data set [2] (0.2 µM), 3450197; in data set [2] (1 µM) it was 3603150; in data set [2] (4 µM) it was 3786770; in data set [2] (10 µM) it was 3480138; in data set [2] (20 µM), 2495041. Moreover, in data set [2] (average±SEM, read-out: IC50), the IC50 is above 20 µM. The viability at 0.04 µM in data set [3] (setting [8]) worked out at 124%; in data set [3] (setting [9]), 126%. In addition, the viability at 0.2 µM in data set [3] (setting [8]) came out at 130%; in data set [3] (setting [9]), 134%. Besides, the values for the viability at 4 µM in data set [3] (setting [8]) and in data set [3] (setting [9]) were 137% and 148%, respectively. Besides, the viability at 20 µM in data set [3] (setting [8]) was 87.1%; in data set [3] (setting [9]), 97.2%.
As to `C=C1CCC2C(C)(CCC=C(C)C)C(O)CCC2(C)C1Cc1c(OC)oc(CO)c(C)c1=O` (stereo not shown) [Compound 12], in data set [4], the “cytotoxicity against the bulk of MCF-7 cells” value (from here on “cytotoxicity against the bulk”) is “dose-dependent cytotoxicity”. The viability at 0.1 µM in data set [4] (0.1 µM (DMSO 0.002%)) was 72.1%. The results for the A490 ave in data set [4] (setting [10]), in data set [4] (setting [11]) and in data set [4] (setting [12]) were 0.767, 0.265 and 0.189, respectively. Besides, the “Luminescence Raw1” value in data set [2] (0.04 µM) came to 3578369; in data set [2] (0.2 µM) it was 4007302; in data set [2] (1 µM) it was 2865222; in data set [2] (4 µM), 415037; in data set [2] (10 µM), 181387; in data set [2] (20 µM) it was 189320. Also, the “Luminescence Raw2” value is 3458604 in data set [2] (0.04 µM); 3578369 in data set [2] (0.2 µM); 3493234 in data set [2] (1 µM); 331384 in data set [2] (4 µM); 175618 in data set [2] (10 µM); 161917 in data set [2] (20 µM). Besides, the IC50 in data set [2] (setting [5]) amounted to 3.29 µM; in data set [2] (average±SEM, read-out: IC50) it was 3.29 ± 0.16 µM; in data set [2] (setting [6]) it was 3.13 µM; in data set [2] (setting [7]) it was 3.45 µM. Besides, the viability at 0.04 µM in data set [3] (setting [8]) stood at 139%; in data set [3] (setting [9]) it was 135%. Besides, the viability at 0.2 µM in data set [3] (setting [8]) was found to be 156%; in data set [3] (setting [9]) it was 139%. Moreover, the figures for the viability at 1 µM in data set [3] (setting [8]) and in data set [3] (setting [9]) were 112% and 136%, respectively. Further, the viability at 4 µM in data set [3] (setting [8]) was determined as 16.2%; in data set [3] (setting [9]), 12.9%. The viability at 10 µM in data set [3] (setting [8]) amounted to 7.07%; in data set [3] (setting [9]) it was 6.84%. The viability at 20 µM amounted to 7.38% in data set [3] (setting [8]) and 6.31% in data set [3] (setting [9]).
For `C=C1CCC2C(C)(CCC=C(C)C)C(O)CCC2(C)C1Cc1c(OC)oc(CO)c(C)c1=O` (stereo not shown) [Compound 16], the “cytotoxicity against the bulk” value in data set [4] was “Low-toxicity”. Besides, the A490 ave in data set [4] (setting [10]) was 0.808; in data set [4] (setting [11]) it was 1.178; in data set [4] (setting [12]), 0.730. The “Cytotoxicity Avg.” value in data set [1] stood at 6.65 µM.
In the case of `C=C1CC[C@@H]2[C@](C)(CC[C@H]3O[C@H](C=C(C)C)C[C@@]23C)[C@@H]1Cc1c(OC)oc(C)c(C)c1=O` [Compound 22, O-methylated higginsianin A], the “cytotoxicity against the bulk” value in data set [4] was “dose-dependent cytotoxicity”. In addition, the viability at 0.1 µM in data set [4] (0.1 µM (DMSO 0.002%)) came to 81.4%. The viability at 1 µM in data set [4] (1 µM (DMSO 0.02%)) amounted to 48%. Moreover, the viability at 10 µM in data set [4] (10 µM (DMSO 0.2%)) was 30.1%. Also, the A490 ave in data set [4] (setting [10]) is given as 0.866; in data set [4] (setting [11]), 0.530; in data set [4] (setting [12]), 0.316. The “Cytotoxicity Avg.” value in data set [1] stood at 5.079 µM. Further, the Cytotoxicity in data set [1] was 5.68 µM and 5.915 µM and 3.643 µM.
